As usually defined, the IC50 is the midpoint of a concentration-inhibition curve.

The test system of test [1] is PANC1 (pancreas).
In test [2] the test system is T24 (bladder).
Test [3] has as its system H460 (lung).
Test [4] has as its system PANC1 (pancreas). The following applies: for IC50: Homo sapiens, PANC-1, read-out: IC50 of standard agent alone.
The test system of test [5] is HCT116 (colon).
Test [6] relates to T24 (bladder). The following applies: for IC50: Homo sapiens, read-out: IC50 of standard agent alone.
Test [7] has as its system MT-4 cells. The test can be described thus: Viability of mock-infected MT-4 cells (MTT). It is filed as cell-based. The following applies: viability of mock-infected MT-4 cells reduced by 50%. Here is the method:
Compound concentrations (μg/ml) required to reduce the viability of mock-infected MT-4 cells by 50% are determined by the MTT-method.

For test [8], the system named is HIV-1. As to conditions: 50% protection of MT-4 cells, MTT-method. Background: Tetrazolium dyes change colour on reduction, which living cells bring about.
Text: 1-Mock-infected MT-4 cell lines are used to support the growth of the HIV-1 virus.
Compound concentrations (μg/ml) required to achieve 50% protection of MT-4 cells from the HIV-1 induced cytopathogenecity, as determined by the MTT-method.
Test [9] has as its target reverse-transcriptase enzyme. Kind of test: Efficacy against reverse-transcriptase (RT). It is filed as biochemical. As to conditions: in vitro. On the procedure:
5.a Efficacy Against Reverse-Transcriptase (RT) Using Phosphonoformate as Inhibitors of RT • The inhibitory effect of the cold extract according to the present invention against the reverse-transcriptase enzyme is also studied using three different concentrations (0.1, 1 and 10 μg/ml) in vitro and compared with the phosphonoformate (PFA) as inhibitors of RT.

Structures are written as SMILES. In brackets after ≈: the same amount, converted by molar mass. Where two headings read alike, the source gives them in different places. Marks after values point to notes of the source that are not given here. Where only a bound is given, the exact number is not on record here.

Regarding `O=P1(N(CCCl)CCCl)NCCCO1` (stereo not shown) [CYACT, cyclophosphamide], the results for the half-maximal inhibitory concentration (IC50) in test [1] and in [2] were 0.193 µg/mL (≈ 0.739 µM) and 0.32 µg/mL (≈ 1.23 µM), respectively.
On to `CC(=O)O[C@@]12CO[C@@H]1C[C@H](O)[C@@]1(C)C(=O)[C@H](O)C3=C(C)[C@@H](OC(=O)[C@H](O)[C@@H](NC(=O)OC(C)(C)C)c4ccccc4)C[C@@](O)([C@@H](OC(=O)c4ccccc4)[C@H]21)C3(C)C` [Taxotere, taxotere], for which the 50% inhibitory concentration (IC50) in test [2] came out at 0.163 µg/mL (≈ 0.202 µM); in test [3], 0.059 µg/mL (≈ 0.073 µM).
For `CO[C@@]12[C@H](COC(N)=O)C3=C(C(=O)C(C)=C(N)C3=O)N1C[C@@H]1N[C@@H]12` [Mitomycin, mitomycin-C], the IC50 was 0.056 µg/mL (≈ 0.167 µM) in [2] and 0.009 µg/mL (≈ 0.0269 µM) in test [3].
Turning to `N.N.[Cl][Pt][Cl]` [Cis-Platin, cisplatin], the “IC50 of standard agent alone” value is 5.48 µg/mL in test [4] (PANC1, no Breastin, Exp. GF654) and more than 30 µg/mL in test [6] (T24, no Breastin, Exp. GF649). Moreover, the IC50 in test [5] is more than 30 µg/mL.
With `COc1cccc2c1C(=O)c1c(O)c3c(c(O)c1C2=O)C[C@@](O)(C(=O)CO)C[C@@H]3O[C@H]1C[C@H](N)[C@H](O)[C@H](C)O1` [ADR, adriamycin], the IC50 is 0.004 µg/mL (≈ 0.00736 µM) in test [3], 0.022 µg/mL (≈ 0.0405 µM) in test [4], 0.006 µg/mL (≈ 0.011 µM) in test [5] and 0.058 µg/mL (≈ 0.107 µM) in test [6].
Turning to `CC(=O)O[C@H]1C(=O)[C@@]2(C)[C@H]([C@H](OC(=O)c3ccccc3)[C@]3(O)C[C@H](OC(=O)[C@H](O)[C@@H](NC(=O)c4ccccc4)c4ccccc4)C(C)=C1C3(C)C)[C@]1(OC(C)=O)CO[C@@H]1C[C@@H]2O` [TAXOL, taxol], the half-inhibitory concentration (IC50) in test [3] was found to be 0.0019 µg/mL (≈ 0.00223 µM); in [4], 0.0019 µg/mL (≈ 0.00223 µM); in [6], 0.01 µg/mL (≈ 0.0117 µM).
Take `CC[C@@]1(O)C(=O)OCc2c1cc1n(c2=O)Cc2cc3c(CN(C)C)c(O)ccc3nc2-1` [Topotecan, topotecan]: the IC50 in test [2] amounted to 0.0032 µg/mL (≈ 0.00759 µM); in test [3], 0.0079 µg/mL (≈ 0.0187 µM); in test [5], 0.0066 µg/mL (≈ 0.0157 µM).
`Nc1nc2[nH]cc(CCc3ccc(C(=O)N[C@@H](CCC(=O)O)C(=O)O)cc3)c2c(=O)[nH]1` [Alimta, alimta] registered a half-maximal inhibitory concentration (IC50) in test [3] of 0.018 µg/mL (≈ 0.0421 µM). Also, the “standard agent alone, based on IC70 values” in [4] (PANC1, no Breastin, Exp. GF683, IC70) is listed as <100^2) μg/ml.
With `O=c1[nH]cc(F)c(=O)[nH]1` [5-FU, 5-fluoro-uracil], the values for the concentration for half-maximal inhibition (IC50) in test [3], in [4] and in test [6] were 0.157 µg/mL (≈ 1.21 µM), 0.247 µg/mL (≈ 1.9 µM) and 0.429 µg/mL (≈ 3.3 µM), respectively.
On to `Cc1cn([C@H]2C[C@H](N=[N+]=[N-])[C@@H](CO)O2)c(=O)[nH]c1=O` [AZT], for which the “IC50 (MT-4)” value in test [7] was more than 10 µg/mL. Moreover, the “EC50 (HIV-1)” value in test [8] was 0.01 µg/mL (≈ 0.0374 µM).
With `CCC1=C[C@@H]2CN(C1)Cc1c([nH]c3ccccc13)[C@@](C(=O)OC)(c1cc3c(cc1OC)N(C)[C@H]1[C@@](O)(C(=O)OC)[C@H](OC(C)=O)[C@]4(CC)C=CCN5CC[C@]31[C@@H]54)C2` [Navelbine, navelbine], the concentration for half-maximal inhibition (IC50) in test [1] worked out at 0.119 µg/mL (≈ 0.153 µM); in test [2], 0.144 µg/mL (≈ 0.185 µM); in [3] it was 0.057 µg/mL (≈ 0.0732 µM); in [5], 0.06 µg/mL (≈ 0.077 µM).
In the case of `O=C(O)P(=O)(O)O` [PFA, phosphonoformate], the “IC50, reverse-transcriptase enzyme” value in test [9] fell in the range of 6 to 20 µg/mL.
